This passage reports MIC results from US9845297B2, “Antimicrobial compounds and methods of making and using the same” (Melinta Therapeutics, Inc., priority 2009, dated 2017).

The term MIC denotes the lowest concentration that inhibits growth of the organism.

The test system of the assay is Eschericia coli strain ATCC25922. As to the kind of experiment: standard microdilution assay to determine minimum inhibitory concentrations (MICs). Type of assay: cell-based. The following applies: Escherichia coli, ATCC25922, Eschericia coli strain ATCC25922, standard microdilution assay; read-out: E. coli ATCC25922 MIC. Here is the method: Minimum inhibitory concentrations (MICs) are determined by the microdilution method, typically in a final volume of 100 microliters, according to protocols outlined by The Clinical and Laboratory Standards Institute [CLSI; formerly the National Committee for Clinical Laboratory Standards (NCCLS)]. See CLSI: Methods for dilution antimicrobial susceptibility tests for bacteria that grow aerobically; approved standard-fifth edition. Wayne, Pa.: NCCLS; 2000. The assays can be also be performed in microtiter trays according to conventional methodologies as published by the CLSI. See CLSI. Methods for Dilution Antimicrobial Susceptibility Tests for Bacteria That Grow Aerobically; Approved Standard-Seventh Edition. CLSI Document M7-A7 [ISBN 1-56238-587-9] CLSI, 940 West Valley Road, Suite 1400, Wayne Pa. 19087-1898 USA, 2006).
The compounds of the present invention were tested for antimicrobial activity. The compounds were run against Eschericia coli strain ATCC25922 using a standard microdilution assay to determine minimum inhibitory concentrations (MICs). […] A “N/A” means that data is unavailable. It will be recognized by one skilled in the art that the compounds can be assessed against other bacterial organisms and that the presentation of data for activity against Eschericia coli is illustrative and in no way is intended to limit the scope of the present invention. The compounds of the present invention can be assayed against a range of other microorganisms depending upon the performance activity desired to be gathered. Furthermore, the “+”, “−”, and “N/A” representation and the selection of a cutoff value of 16 micrograms/ml is also illustrative and in no way is intended to limit the scope of the present invention.

For `NCCCN(CCCN)Cc1ccc(-c2c[nH]c(NC(=O)Nc3ccc(C(F)(F)F)cc3)nc2=O)cc1` [Compound 172], the MIC is less than 16 µg/mL. The value for `NCCCN(CCCN)Cc1ccc(-c2c[nH]c(NC(=O)c3ccc(Cl)cc3)nc2=O)cc1` [Compound 173] was more than 16 µg/mL.

Take `Cn1ncc(C(=O)Nc2nc(=O)c(-c3ccc(CN(CCCN)CCCN)cc3)c[nH]2)c1Cl` [Compound 174]: the MIC is more than 16 µg/mL. The value for `CSc1ccc(C(=O)Nc2ccn(CCCC(CCCNC(=N)N)NCCCN)c(=O)n2)cc1` (stereo not drawn) [Compound 175] was more than 16 µg/mL; that for `CN(C)c1ccc(C(=O)Nc2ccn(CCCC(CCCNC(=N)N)NCCCN)c(=O)n2)cc1` (stereo not drawn) [Compound 176] was less than 16 µg/mL. Take `COc1ccc(C(=O)Nc2ccn(CCCC(CCCNC(=N)N)NCCCN)c(=O)n2)cc1` (stereo not drawn) [Compound 177]: the minimum inhibitory concentration (MIC) is more than 16 µg/mL.

On to `NCCCN(CCCN)Cc1ccc(-c2c[nH]c(NC(=O)Nc3cc(F)c(F)cc3F)nc2=O)cc1` [Compound 178], for which the minimal inhibitory concentration (MIC) was more than 16 µg/mL.

As for `CN1CCN(c2ccc(NC(=O)Nc3ccn(CCCC(CCCNC(=N)N)NCCCN)c(=O)n3)cc2)CC1` (stereo not drawn) [Compound 185], the minimum inhibitory concentration (MIC) is less than 16 µg/mL.

`N=C(N)NCCCC(CCCn1ccc(NC(=O)Nc2ccc(N3CCCCC3)cc2)nc1=O)NCCCN` (stereo not drawn) [Compound 186]: the minimal inhibitory concentration (MIC) is more than 16 µg/mL. In the case of `N=C(N)NCCCC(CCCn1ccc(NC(=O)c2ccc(N3CCOCC3)nc2)nc1=O)NCCCN` (stereo not drawn) [Compound 187] it was more than 16 µg/mL; in that of `CN(C)c1ccc(NC(=O)Nc2nc(=O)c(-c3ccc(CN(CCCN)CCCN)cc3)c[nH]2)cc1` [Compound 188], more than 16 µg/mL.

Regarding `N=C(N)NCCCC(CCCn1ccc(NC(=O)c2ccc(N3CCOCC3)cc2)nc1=O)NCCCN` (stereo not drawn) [Compound 189], the MIC was more than 16 µg/mL. The value for `CN1CCN(c2ccc(C(=O)Nc3ccn(CCC[C@H](CCCNC(=N)N)NCCCN)c(=O)n3)cc2)CC1` [Compound 190] was less than 16 µg/mL. In the case of `CN1CCN(c2ccc(NC(=O)Nc3nc(=O)c(-c4ccc(CN(CCCN)CCCN)cc4)c[nH]3)cc2)CC1` [Compound 191] it was less than 16 µg/mL; in that of `CC(N)(CO)C(=O)Nc1ccc(C(=O)Nc2ccn(CCC[C@H](CCCNC(=N)N)NCCCN)c(=O)n2)cc1` (stereo partly drawn) [Compound 199], less than 16 µg/mL.

Take `NCCCN(CCCN)Cc1ccc(-c2c[nH]c(NC(=O)Cc3ccc(C(F)(F)F)cc3)nc2=O)cc1` [Compound 205]: the MIC is more than 16 µg/mL. The value for `CN(C)CCN1CCN(c2ccc(NC(=O)Nc3ccn(CCCC(CCCNC(=N)N)NCCCN)c(=O)n3)cc2)CC1` (stereo not drawn) [Compound 208] was less than 16 µg/mL; that for `CN1CCN(C2CCN(c3ccc(NC(=O)Nc4nc(=O)c(-c5ccc(CN(CCCN)CCCN)cc5)c[nH]4)cc3)CC2)CC1` [Compound 209] was less than 16 µg/mL; that for `CN(C)CCN1CCN(c2ccc(NC(=O)Nc3nc(=O)c(-c4ccc(CN(CCCN)CCCN)cc4)c[nH]3)cc2)CC1` [Compound 210] was less than 16 µg/mL. For the compound `CN(C)C(=O)CN1CCN(c2ccc(NC(=O)Nc3nc(=O)c(-c4ccc(CN(CCCN)CCCN)cc4)c[nH]3)cc2)CC1` [Compound 211], the MIC was more than 16 µg/mL. In the case of `CN(C)CCN1CCN(c2ccc(C(=O)Nc3ccn(CCC[C@H](CCCNC(=N)N)NCCCN)c(=O)n3)cc2)CC1` [Compound 213] it was more than 16 µg/mL; in that of `CN(C)C(=O)CN1CCN(c2ccc(NC(=O)Nc3ccn(CCC[C@H](CCCNC(=N)N)NCCCN)c(=O)n3)cc2)CC1` [Compound 214], more than 16 µg/mL. Consider `CN1CCN(c2ccc(NC(=O)Nc3ccn(-c4ccc(CN(CCCN)CCCNC(=N)N)cc4)c(=O)n3)cc2)CC1` [Compound 222], for which the MIC is less than 16 µg/mL.

As for `N=C(N)NCCCN(CCCN)Cc1ccc(-n2ccc(NC(=O)Nc3ccc(F)c(F)c3)nc2=O)cc1` [Compound 223], the minimum inhibitory concentration (MIC) is more than 16 µg/mL. In the case of `NCc1ccc(-c2c[nH]c(NC(=O)Nc3cc(F)c(F)cc3F)nc2=O)cc1` [Compound 238] it was more than 16 µg/mL; in that of `NCCCNCc1ccc(-c2c[nH]c(NC(=O)Nc3cc(F)c(F)cc3F)nc2=O)cc1` [Compound 239], more than 16 µg/mL; in that of `NCCCNCc1ccc(-c2c[nH]c(NC(=O)Nc3ccccc3OC(F)(F)F)nc2=O)cc1Cl` [Compound 242], less than 16 µg/mL. On to `NCCCNCc1ccc(-c2c[nH]c(NC(=O)Nc3cccc(Cl)c3Cl)nc2=O)cc1Cl` [Compound 243], for which the MIC was less than 16 µg/mL. The value for `NCCCNCc1ccc(-c2c[nH]c(NC(=O)Nc3ccc(OC(F)F)cc3)nc2=O)cc1Cl` [Compound 244] was more than 16 µg/mL.

Regarding `NCCCNCc1ccc(-c2c[nH]c(NC(=O)Nc3ccccc3OC(F)(F)F)nc2=O)cc1F` [Compound 246], the minimum inhibitory concentration (MIC) is less than 16 µg/mL.

As for `NCc1ccc(-c2c[nH]c(NC(=O)Nc3ccccc3OC(F)(F)F)nc2=O)cc1F` [Compound 247], the MIC was more than 16 µg/mL. In the case of `NCc1ccc(-c2c[nH]c(NC(=O)Nc3ccccc3OC(F)(F)F)nc2=O)cc1C(F)(F)F` [Compound 248], the minimum inhibitory concentration (MIC) was more than 16 µg/mL. In the case of `NCCCNCc1ccc(-c2c[nH]c(NC(=O)Nc3ccc(OC(F)(F)F)cc3)nc2=O)cc1F` [Compound 249] it was less than 16 µg/mL.

Take `NC1CCN(Cc2ccc(-c3c[nH]c(NC(=O)Nc4ccccc4OC(F)(F)F)nc3=O)cc2)CC1` [Compound 251]: the MIC was less than 16 µg/mL.

On to `NCCCNCc1ccc(-c2c[nH]c(NC(=O)Nc3cccc(Cl)c3Cl)nc2=O)cc1F` [Compound 252], for which the MIC was less than 16 µg/mL. With `NCCCNCc1ccc(-c2c[nH]c(NC(=O)NCc3ccc(F)cc3)nc2=O)cc1F` [Compound 255], the MIC is more than 16 µg/mL. In the case of `NCCCN(CCCN)Cc1ccc(-c2c[nH]c(NC(=O)Nc3ccccc3OC(F)(F)F)nc2=O)cc1` [Compound 256], the minimal inhibitory concentration (MIC) is less than 16 µg/mL.

Take `O=C(NCc1ccc(F)cc1)Nc1nc(=O)c(-c2ccc(CNCCCF)c(Cl)c2)c[nH]1` [Compound 257]: the minimal inhibitory concentration (MIC) is more than 16 µg/mL.

With `NCCCNCc1ccc(-c2c[nH]c(NC(=O)Nc3cccc(Cl)c3Cl)nc2=O)cc1C(F)(F)F` [Compound 259], the MIC was less than 16 µg/mL. The value for `CSCCNCc1ccc(-c2c[nH]c(NC(=O)Nc3ccccc3OC(F)(F)F)nc2=O)cc1Cl` [Compound 260] was more than 16 µg/mL; that for `NCCCNCc1ccc(-c2c[nH]c(NC(=O)Nc3cc(F)c(F)cc3F)nc2=O)cc1F` [Compound 265] was more than 16 µg/mL; that for `NCCCNCc1ccc(-c2c[nH]c(NC(=O)Nc3cc(F)c(F)cc3F)nc2=O)cc1C(F)(F)F` [Compound 266] was less than 16 µg/mL.

As for `CSCCNCc1ccc(-c2c[nH]c(NC(=O)NCc3ccc(F)cc3)nc2=O)cc1Cl` [Compound 267], the MIC is more than 16 µg/mL.

As for `CSCCNCc1ccc(-c2c[nH]c(NC(=O)Nc3cc(F)c(F)cc3F)nc2=O)cc1Cl` [Compound 268], the MIC was more than 16 µg/mL. `NCCCNCc1ccc(-c2c[nH]c(NC(=O)Nc3ccccc3OC(F)(F)F)nc2=O)cc1C(F)(F)F` [Compound 269]: the MIC is less than 16 µg/mL. The value for `NCCCNCc1ccc(-c2c[nH]c(NC(=O)Nc3ccc(OC(F)F)cc3)nc2=O)cc1C(F)(F)F` [Compound 270] was more than 16 µg/mL; that for `O=C(Nc1nc(=O)c(-c2ccc(CNCCCF)c(Cl)c2)c[nH]1)Nc1ccccc1OC(F)(F)F` [Compound 271] was more than 16 µg/mL; that for `NCCCNCc1ccc(-c2c[nH]c(NC(=O)Nc3ccc(C(F)(F)F)cc3)nc2=O)cc1C(F)(F)F` [Compound 273] was more than 16 µg/mL.
